Earlier results in PubChem BioAssay AID1259409 (Chemical Carcinogenesis Research Information System (CCRIS), 2018).

Tested on: rodent chemically induced tumor inhibition, incidence and multiplicity
Test: CCRIS tumor inhibitor studies
Details: Species: MOUSE

**Q.** Which “tumour outcome (control, treated, inhibition, significance)” value (Carcinogen: 4(METHYLNITROSAMINO)1-(3-PYRIDYL)-1-BUTANONE, 64091-91-4, Dose [Inhibitor]: 0, 5 UMOL IN 0.1 ML CORN OIL WITH 10% DMSO 2 HR PRIOR TO CARCINOGEN DOSE (STUDY DURATION: 16 WK), Route [Inhibitor]: GAVAGE, Strain/Sex: STRAIN-A/FEMALE, Target Tissue: Type of Lesion: LUNG: ADENOMA, Dose [Carcinogen]: 10 UMOL IN 0.1 ML SALINE ONCE, Promoter: NONE USED) does the source give for `S=C=NCCc1ccccc1` here?
**A.** 100%, 100%, 0%, not significant

**Q.** And the “tumour outcome (control, treated, inhibition, significance)” value (Carcinogen: 4-(METHYLNITROSAMINO)-1-(3-PYRIDYL)-1-BUTANONE (NNK) [64091-91-4], Dose [Inhibitor]: 1.5 UM/G DIET, BEGINNING 13 WKS AFTER CARCINOGEN/PROMOTER TREATMENT (STUDY DURATION: 42 WK), Route [Inhibitor]: DIET, Strain/Sex: A/J/FEMALE, Target Tissue: Type of Lesion: LUNG: ADENOCARCINOMA, Dose [Carcinogen]: 3 µM WEEKLY FOR 8 DOSES, Promoter: BENZO[A]PYRENE [50-32-8])?
**A.** 42%, 35%, 17%, not significant

**Q.** And the “tumour outcome (control, treated, inhibition, significance)” value (Carcinogen: 4-(METHYLNITROSAMINO)-1-(3-PYRIDYL)-1-BUTANONE (NNK) [64091-91-4], Dose [Inhibitor]: 1.5 UM/G DIET, BEGINNING 13 WKS AFTER CARCINOGEN/PROMOTER TREATMENT (STUDY DURATION: 42 WK), Route [Inhibitor]: DIET, Strain/Sex: A/J/FEMALE, Target Tissue: Type of Lesion: LUNG: ADENOMA, Dose [Carcinogen]: 3 µM WEEKLY FOR 8 DOSES, Promoter: BENZO[A]PYRENE [50-32-8])?
**A.** 100%, 95%, 5%, not significant

**Q.** And the “tumour outcome (control, treated, inhibition, significance)” value (Carcinogen: 4-(METHYLNITROSAMINO)-1-(3-PYRIDYL)-1-BUTANONE (NNK) [64091-91-4], Dose [Inhibitor]: 3 UM/G DIET, BEGINNING 13 WKS AFTER CARCINOGEN/PROMOTER TREATMENT (STUDY DURATION: 42 WK), Route [Inhibitor]: DIET, Strain/Sex: A/J/FEMALE, Target Tissue: Type of Lesion: LUNG: ADENOCARCINOMA, Dose [Carcinogen]: 3 µM WEEKLY FOR 8 DOSES, Promoter: BENZO[A]PYRENE [50-32-8])?
**A.** 42%, 19%, 55%, p<0.05

**Q.** And the “tumour outcome (control, treated, inhibition, significance)” value (Carcinogen: 4-(METHYLNITROSAMINO)-1-(3-PYRIDYL)-1-BUTANONE [64091-91-4] (NNK), Dose [Inhibitor]: 3 UM/G DIET, BEGINNING 13 WKS AFTER CARCINOGEN/PROMOTER TREATMENT (STUDY DURATION: 42 WK), Route [Inhibitor]: DIET, Strain/Sex: A/J/FEMALE, Target Tissue: Type of Lesion: LUNG: ADENOMA, Dose [Carcinogen]: 3 µM WEEKLY FOR 8 DOSES, Promoter: BENZO[A]PYRENE [50-32-8])?
**A.** 100%, 100%, 0%, not significant

**Q.** What about the “tumour outcome (control, treated, inhibition, significance)” value (Carcinogen: 4-(METHYLNITROSAMINO)-1-(3-PYRIDYL)-1-BUTANONE [64091-91-4], BENZO[A]PYRENE [50-32-8], Dose [Inhibitor]: 0.3 UMOL/G IN DIET FOR 10 WK BEGINNING 1 WK PRIOR TO FIRST CARCINOGEN DOSE (STUDY DURATION: 28 WK), Route [Inhibitor]: ORAL, Strain/Sex: A/J/FEMALE, Target Tissue: Type of Lesion: LUNG: TUMOR, Dose [Carcinogen]: 3 UMOL BAP + 3 UMOL NNK IN 0.1 ML COTTONSEED OIL 1X/WK FOR 8 WK (STUDY DURATION: 28 WK), Promoter: NONE) of the same compound?
**A.** 100%, 100%, 0%, not calculated

**Q.** And the “tumour outcome (control, treated, inhibition, significance)” value (Carcinogen: 4-(METHYLNITROSAMINO)-1-(3-PYRIDYL)-1-BUTANONE [64091-91-4], BENZO[A]PYRENE [50-32-8], Dose [Inhibitor]: 1 UMOL/G IN DIET FOR 10 WK BEGINNING 1 WK PRIOR TO FIRST CARCINOGEN DOSE (STUDY DURATION: 28 WK), Route [Inhibitor]: ORAL, Strain/Sex: A/J/FEMALE, Target Tissue: Type of Lesion: LUNG: TUMOR, Dose [Carcinogen]: 3 UMOL BAP + 3 UMOL NNK IN 0.1 ML COTTONSEED OIL 1X/WK FOR 8 WK (STUDY DURATION: 28 WK), Promoter: NONE)?
**A.** 100%, 100%, 0%, not calculated

**Q.** And the “tumour outcome (control, treated, inhibition, significance)” value (Carcinogen: 4-(METHYLNITROSAMINO)-1-(3-PYRIDYL)-1-BUTANONE [64091-91-4], BENZO[A]PYRENE [50-32-8], Dose [Inhibitor]: 3 UMOL/G IN DIET FOR 10 WK BEGINNING 1 WK PRIOR TO FIRST CARCINOGEN DOSE (STUDY DURATION: 28 WK), Route [Inhibitor]: ORAL, Strain/Sex: A/J/FEMALE, Target Tissue: Type of Lesion: LUNG: TUMOR, Dose [Carcinogen]: 3 UMOL BAP + 3 UMOL NNK IN 0.1 ML COTTONSEED OIL 1X/WK FOR 8 WK (STUDY DURATION: 28 WK), Promoter: NONE)?
**A.** 100%, 100%, 0%, not calculated

**Q.** What about the “tumour outcome (control, treated, inhibition, significance)” value (Carcinogen: 4-(METHYLNITROSAMINO)-1-(3-PYRIDYL)-1-BUTANONE [64091-91-4], BENZO[A]PYRENE [50-32-8], Dose [Inhibitor]: 6 UMOL IN 0.1 ML COTTONSEED OIL 1X/WK FOR 8 WK 2 PRIOR TO EACH CARCINOGEN DOSE (STUDY DURATION: 16 WK), Route [Inhibitor]: GAVAGE, Strain/Sex: A/J/FEMALE, Target Tissue: Type of Lesion: LUNG: TUMOR, Dose [Carcinogen]: 3 UMOL BAP + 3 UMOL NNK IN 0.1 ML COTTONSEED OIL 1X/WK FOR 8 WK (STUDY DURATION: 16 WK), Promoter: NONE) of the same compound?
**A.** 100%, 100%, 0%, not calculated

**Q.** And the “tumour outcome (control, treated, inhibition, significance)” value (Carcinogen: 4-(METHYLNITROSAMINO)-1-(3-PYRIDYL)-1-BUTANONE [64091-91-4], Dose [Inhibitor]: 0.3 UMOL/G IN DIET FOR 10 WK BEGINNING 1 WK PRIOR TO FIRST CARCINOGEN DOSE (STUDY DURATION: 28 WK), Route [Inhibitor]: ORAL, Strain/Sex: A/J/FEMALE, Target Tissue: Type of Lesion: LUNG: TUMOR, Dose [Carcinogen]: 3 UMOL IN 0.1 ML COTTONSEED OIL 1X/WK FOR 8 WK (STUDY DURATION: 28 WK), Promoter: NONE)?
**A.** 100%, 100%, 0%, not calculated

**Q.** What about the “tumour outcome (control, treated, inhibition, significance)” value (Carcinogen: 4-(METHYLNITROSAMINO)-1-(3-PYRIDYL)-1-BUTANONE [64091-91-4], Dose [Inhibitor]: 1 UMOL/G IN DIET FOR 10 WK BEGINNING 1 WK PRIOR TO FIRST CARCINOGEN DOSE (STUDY DURATION: 28 WK), Route [Inhibitor]: ORAL, Strain/Sex: A/J/FEMALE, Target Tissue: Type of Lesion: LUNG: TUMOR, Dose [Carcinogen]: 3 UMOL IN 0.1 ML COTTONSEED OIL 1X/WK FOR 8 WK (STUDY DURATION: 28 WK), Promoter: NONE) of the same compound?
**A.** 100%, 100%, 0%, not calculated

**Q.** And the “tumour outcome (control, treated, inhibition, significance)” value (Carcinogen: 4-(METHYLNITROSAMINO)-1-(3-PYRIDYL)-1-BUTANONE [64091-91-4], Dose [Inhibitor]: 3 UMOL/G IN DIET FOR 10 WK BEGINNING 1 WK PRIOR TO FIRST CARCINOGEN DOSE (STUDY DURATION: 28 WK), Route [Inhibitor]: ORAL, Strain/Sex: A/J/FEMALE, Target Tissue: Type of Lesion: LUNG: TUMOR, Dose [Carcinogen]: 3 UMOL IN 0.1 ML COTTONSEED OIL 1X/WK FOR 8 WK (STUDY DURATION: 28 WK), Promoter: NONE)?
**A.** 100%, 100%, 0%, not calculated

**Q.** And the “tumour outcome (control, treated, inhibition, significance)” value (Carcinogen: 4-(METHYLNITROSAMINO)-1-(3-PYRIDYL)-1-BUTANONE, 64091-91-4, Dose [Inhibitor]: 0, 0.2 UMOL 1/D FOR 4 D ADMINISTERED PRIOR TO CARCINOGEN TREATMENT (STUDY DURATION: 116 D), Route [Inhibitor]: GAVAGE, Strain/Sex: STRAIN A, Target Tissue: Type of Lesion: LUNG ADENOMA, Dose [Carcinogen]: 10 UMOL ONCE 2 HR AFTER FINAL DOSE OF INHIBITOR, Promoter: NONE USED)?
**A.** 100%, 100%, 0%, not significant

**Q.** And the “tumour outcome (control, treated, inhibition, significance)” value (Carcinogen: 4-(METHYLNITROSAMINO)-1-(3-PYRIDYL)-1-BUTANONE, 64091-91-4, Dose [Inhibitor]: 0, 0.008% IN DIET FOR 17 WK BEGINNING 1 WK PRIOR TO CARCINOGEN DOSE (STUDY DURATION: 17 WK), Route [Inhibitor]: ORAL, Strain/Sex: STRAIN-A/FEMALE, Target Tissue: Type of Lesion: LUNG: ADENOMA, Dose [Carcinogen]: 10 UMOL IN 0.1 ML SALINE ONCE, Promoter: NONE USED)?
**A.** 100%, 96%, 4%, not significant

**Q.** And the “tumour outcome (control, treated, inhibition, significance)” value (Carcinogen: 4-(METHYLNITROSAMINO)-1-(3-PYRIDYL)-1-BUTANONE, 64091-91-4, Dose [Inhibitor]: 0, 1 UMOL 1/D FOR 4 D ADMINISTERED PRIOR TO CARCINOGEN TREATMENT (STUDY DURATION: 116 D), Route [Inhibitor]: GAVAGE, Strain/Sex: STRAIN A, Target Tissue: Type of Lesion: LUNG: ADENOMA, Dose [Carcinogen]: 10 UMOL ONCE, Promoter: NONE USED)?
**A.** 100%, 100%, 0%, not significant
